Data as given in patent publication US8653112B2, “Substituted pyrazoles as estrogen receptor ligands” (Karo Bio AB, priority 2009, dated 2014).

What follows are compounds tested against T1, human ERβ (ERβ-LBD) (Homo sapiens, UniProt Q92731) (assay: Binding assay 1: estrogen receptor binding assay (SPA, 3H-E2 displacement), ERβ). Conditions: displacement of 3H-E2, read-out: binding affinity to the estrogen receptor β-subtype, IC50.
T1 construct: ERβ (ERβ-LBD, pET-N-AT #1, aa 255-530); biotinylation tag (in vivo biotinylated, pBirA co-expression); made in house; host or cells: E. coli BL21 (DE3) pBirA
T1 sequence (Q92731 255-530): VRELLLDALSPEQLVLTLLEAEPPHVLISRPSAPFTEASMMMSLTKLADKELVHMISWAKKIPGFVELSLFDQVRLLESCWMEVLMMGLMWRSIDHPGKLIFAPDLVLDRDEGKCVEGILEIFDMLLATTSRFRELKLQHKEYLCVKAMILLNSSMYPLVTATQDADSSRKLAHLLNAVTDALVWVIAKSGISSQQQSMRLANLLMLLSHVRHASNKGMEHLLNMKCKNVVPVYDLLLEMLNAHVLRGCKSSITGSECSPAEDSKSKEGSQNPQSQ
Method: Binding Assay 1: Estrogen Receptor Binding Assay
The estrogen receptor ligand binding assays are designed as scintillation proximity assays (SPA), employing the use of tritiated estradiol (^3H-E2) and recombinant expressed biotinylated estrogen receptor binding domains. The binding domains of human ERα (ERα-LBD, pET-N-AT #1, aa 301-595) and ERβ (ERβ-LBD, pET-N-AT #1, aa 255-530) proteins are produced in E. coli ((BL21, (DE3), pBirA)) at 22 C in 2×LB medium supplemented with 50 uM biotin. After 3 h of IPTG induction (0.55 mM), cells are harvested by centrifugation at 7300×g for 15 min and cell pellets stored frozen in −20C. Extraction of ERα and ERβ are performed using 5 g of cells suspended in 50 mL of extraction buffer (50 mM Tris, pH 8.0, 100 mM KCl, 4 mM EDTA, 4 mM DDT and 0.1 mM PMSF). The cell suspension is run twice through a Microfluidizer M-110L (Microfluidics) and centrifuged at 15,000×g for 60 min. The supernatant is aliquoted and stored in −70C.
Dilute ERαLBD or ERβ-LBD extracts in assay buffer (18 mM K2HPO4, 2 mM KH2PO4, 20 mM NasMoO4, 1 mM EDTA, 1 mM TCEP) 1:676 and 1:517 for alpha and beta respectively. The diluted receptor concentrations should be 900 fmol/L. Preincubate the extracts with streptavidin coated polyvinyltoluene SPA beads (RPNQ0007, GE Healthcare) at a concentration of 0.43 mg/mL for 1 hr at room temperature.
Test compounds are evaluated over a range of concentrations from 157 μM to 37.5 pM. The test compound stock solutions should be made in 100% DMSO at 5× of the final concentration desired for testing in the assay. The amount of DMSO in the test wells of the 384 well plate will be 20%. Add 18 μl aliquots of test compounds to the assay plates followed by 35 μl of the preincubated receptor/SPA bead mix and finally add 35 μl of 3 nM ^3H-E2. Cover the plates with a plastic sealer, centrifuge for 1 minute at 1000 rpm and equilibrate over night on a shaker at room temperature. The following morning, centrifuge the plates 5 minutes at 2000 rpm and measure on a plate scintillation counter e.g. a PerkinElmer Microbeta 1450 Trilux.
For compounds able to displace 3[H]-E2 from the receptor an IC50-value (the concentration required to inhibit 50% of the binding of 3[H]-E2) is determined by a non-linear four parameter logistic model; b=((bmax−bmin)/(1+(1/IC50)S))+bmin I is added concentration of binding inhibitor, IC50 is the concentration of inhibitor at half maximal binding and S is a slope factor. The Microbeta-instrument generates the mean cpm (counts per minute) value/minute and corrects for individual variations between the detectors thus generating corrected cpm values.

Row | Compound | IC50
1 | Cc1noc(C)c1-c1c(-c2ccc(O)cc2)nn(C)c1C=NO (single isomer, unassigned) [Example 12, 4-(3,5-dimethylisoxazol-4-yl)-3-(4-hydroxyphenyl)-1-methyl-1H-pyrazole-5-carbaldehyde oxime] | 0.001 to 0.1 µM
2 | Cc1noc(C)c1-c1c(C=NO)c(C(C)C)nn1-c1ccc(O)cc1 (single isomer, unassigned) [Example 18, 5-(3,5-dimethylisoxazol-4-yl)-1-(4-hydroxyphenyl)-3-isopropyl-1H-pyrazole-4-carbaldehyde oxime] | 0.001 to 0.1 µM
3 | CCc1nn(-c2ccc(O)cc2F)c(-c2c(C)noc2C)c1C=NO (single isomer, unassigned) [Example 27, 5-(3,5-dimethylisoxazol-4-yl)-3-ethyl-1-(2-fluoro-4-hydroxyphenyl)-1H-pyrazole-4-carbaldehyde oxime] | 0.001 to 0.1 µM
4 | Cn1nc(-c2ccc(O)cc2)c(-c2c(F)cccc2F)c1C=NO (single isomer, unassigned) [Example 44, 4-(2,6-difluorophenyl)-3-(4-hydroxyphenyl)-1-methyl-1H-pyrazole-5-carbaldehyde oxime] | 0.001 to 0.1 µM
5 | Cn1nc(-c2ccc(O)cc2)c(-c2c(Cl)cccc2Cl)c1C=NO (single isomer, unassigned) [Example 45, 4-(2,6-dichlorophenyl)-3-(4-hydroxyphenyl)-1-methyl-1H-pyrazole-5-carbaldehyde oxime] | 0.001 to 0.1 µM
6 | Cc1noc(C)c1-c1c(-c2ccc(O)cc2F)nn(C)c1C=NO (single isomer, unassigned) [Example 48, 4-(3,5-dimethylisoxazol-4-yl)-3-(2-fluoro-4-hydroxyphenyl)-1-methyl-1H-pyrazole-5-carbaldehyde oxime] | 0.001 to 0.1 µM
7 | Cc1cc(O)ccc1-c1nn(C)c(/C=N/O)c1-c1c(C)noc1C (single isomer, unassigned) [Example 63, (E)-4-(3,5-dimethylisoxazol-4-yl)-3-(4-hydroxy-2-methylphenyl)-1-methyl-1H-pyrazole-5-carbaldehyde oxime] | 0.001 to 0.1 µM
